According to patent US20230414775A1, “TUBULYSINS AND PROTEIN-TUBULYSIN CONJUGATES” (priority 2021, published 2023):
Like-named read-outs stand apart in the source and are kept apart here.

What was measured:
SK-BR-3 cells = test: SK-BR-3 anti-proliferation assay for payloads (CellTiter-Glo); type: cell-based; settings: Homo sapiens, free payload, 120-144 h, read-out: SKBR3
Summary of the method: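 Payloads: SK-BR-3 cells (700/well, McCoy's 5a + 10% FBS) treated after 24 h, 0.5% DMSO, 120 h at 37° C. Alternative format: 1000 cells/well, compounds or ADCs in Opti-Mem/0.1% BSA (5%), 0.2% DMSO, 144 h. CellTiter-Glo luminescence; inhibition % versus untreated controls.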

HCT15 cells = test: HCT15 anti-proliferation / cell killing assay (CellTiter-Glo), with or without verapamil; type: cell-based, human; settings: Homo sapiens
Summary of the method: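 HCT15 human colorectal cells treated with compounds for 120 hours at 37° C (0.5% DMSO), with or without verapamil pre-added 1 h before compounds. Viability by CellTiter-Glo ATP luminescence; inhibition % computed against untreated and blank wells.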

[1] = Plasma stability test of payloads (LC-MS/MS, half-life); type: in vitro ADME; settings: human plasma, 37° C., time points 0-24 h, read-out: Human plasma stability T1/2 (converted)
Method: Stock solutions were prepared at 10 mM in DMSO for the test compound. Aliquots of the stock solutions were diluted to 0.02 mM in 0.05 M sodium phosphate buffer containing 0.5% BSA as the dosing solution. Then 10 μL of the dosing solutions were dosed into 90 μL of pre-warmed plasma (37° C.) in singlet (n=1) in 96-well assay plates to reach a final test concentration of 2 μM. The plates were kept in a 37° C. water bath for the duration of the experiment. At each time point (0, 0.25, 1, 8, 24 h), 400 μL of acetonitrile (containing internal standard) was added into corresponding wells of the assay plates. After the final time point was quenched, the assay plates were shaken on a vibrator (IKA, MTS 2/4) for 10 min (600 rpm/min) and then centrifuged at 5594 g for 15 min (Thermo Multifuge×3R). Aliquots of the supernatant were taken and analyzed by LC-MS/MS. The peak area response ratio to internal standard (PARR) of the compounds at 0.25, 1, 8, and 24 h was compared to the PARR at time zero to determine the percent of test compound remaining at each time point. Half-lives (ti/2) were calculated using Excel software, fitting to a single-phase exponential decay equation.

[2] = HCT15 cells, no verapamil, 120 h (5 days), read-out: HCT-15
[3] = HCT-15, HCT15 cells pre-treated with verapamil, 120 h, read-out: HCT-15 with verapamil

| SMILES | IC50 (SK-BR-3 cells) [nM] | IC50 (HCT15 cells; [2]) [nM] | IC50 (HCT15 cells; [3]) [nM] | half-life at 2 μM [1] [h] |
| --- | --- | --- | --- | --- |
| CCCCCCN(C(=O)[C@@H](NC(=O)[C@H]1CCCCN1C)[C@@H](C)CC)[C@H](C[C@@H](OC(C)=O)c1nc(C(=O)N[C@@H](Cc2ccc(NCC(=O)O)cc2)CC(C)(C)C(=O)O)cs1)C(C)C (racemic) [PA16, Rac-(R)-4-(2-((1S,3S)-1-acetoxy-3-((2R,3R)—N-hexyl-3-methyl-2-((S)-1-methylpiperidine-2-carboxamido)pentanamido)-4-methylpentyl)thiazole-4-carboxamido)-acid] | 0.019 | 0.062 | 0.033 | 327 |
| CCCCCCN(C(=O)[C@@H](NC(=O)[C@@]1(C)CCCN1)[C@@H](C)CC)[C@H](C[C@@H](OC(C)=O)c1nc(C(=O)N[C@@H](Cc2ccc(N)c(F)c2)CC(C)(C)C(=O)O)cs1)C(C)C [Compound P15, reference compound] | 0.068 | 1.66 | 0.19 | 15.1 |
| CCCCCCN(C(=O)[C@@H](NC(=O)[C@H]1CCCCN1CCO)[C@@H](C)CC)[C@H](C[C@@H](OC(C)=O)c1nc(C(=O)N[C@@H](Cc2ccc(N)cc2)CC(C)(C)C(=O)O)cs1)C(C)C [PA7, (4S)-4-({2-[(1R,3R)-1-(acetyloxy)-3-[(2S,3S)—N-hexyl-2-{[(2R)-1-(2-hydroxyethyl)piperidin-2-yl]formamido}-3-methylpentanamido]-4-methylpentyl]-1,3-thiazol-4-yl}formamido)-5-(4-aminophenyl)-2,2-dimethylpentanoic acid] | 0.038 | 0.122 | 0.037 | 65.9 |
| CCCCCCN(C(=O)[C@@H](NC(=O)[C@H]1CCCCN1CCO)[C@@H](C)CC)[C@H](C[C@@H](OCC)c1nc(C(=O)N[C@@H](Cc2ccc(N)cc2)CC(C)(C)C(=O)O)cs1)C(C)C [PA13, (S)-5-(4-aminophenyl)-4-(2-((1R,3R)-1-ethoxy-3-((2S,3S)—N-hexyl-2-((R)-1-(2-hydroxyethyl)piperidine-2-carboxamido)-3-methylpentanamido)-4-methylpentyl)thiazole-4-carboxamido)-2,2-dimethylpentanoic acid] | 0.288 | 1.31 | 0.284 | 313 |
